Assay results reported in ChEMBL document CHEMBL5233237, “Agonist and antagonist ligands of toll-like receptors 7 and 8: Ingenious tools for therapeutic purposes” (Eur J Med Chem, 2020).
One block for each molecule: values may come before it.

How the values were obtained:
Toll-like receptor 8 [1] = target: T1, Toll-like receptor 8 (Homo sapiens, UniProt Q9NR97); test: (§1) Agonist activity at human TLR8
T1 sequence (Q9NR97 whole entry): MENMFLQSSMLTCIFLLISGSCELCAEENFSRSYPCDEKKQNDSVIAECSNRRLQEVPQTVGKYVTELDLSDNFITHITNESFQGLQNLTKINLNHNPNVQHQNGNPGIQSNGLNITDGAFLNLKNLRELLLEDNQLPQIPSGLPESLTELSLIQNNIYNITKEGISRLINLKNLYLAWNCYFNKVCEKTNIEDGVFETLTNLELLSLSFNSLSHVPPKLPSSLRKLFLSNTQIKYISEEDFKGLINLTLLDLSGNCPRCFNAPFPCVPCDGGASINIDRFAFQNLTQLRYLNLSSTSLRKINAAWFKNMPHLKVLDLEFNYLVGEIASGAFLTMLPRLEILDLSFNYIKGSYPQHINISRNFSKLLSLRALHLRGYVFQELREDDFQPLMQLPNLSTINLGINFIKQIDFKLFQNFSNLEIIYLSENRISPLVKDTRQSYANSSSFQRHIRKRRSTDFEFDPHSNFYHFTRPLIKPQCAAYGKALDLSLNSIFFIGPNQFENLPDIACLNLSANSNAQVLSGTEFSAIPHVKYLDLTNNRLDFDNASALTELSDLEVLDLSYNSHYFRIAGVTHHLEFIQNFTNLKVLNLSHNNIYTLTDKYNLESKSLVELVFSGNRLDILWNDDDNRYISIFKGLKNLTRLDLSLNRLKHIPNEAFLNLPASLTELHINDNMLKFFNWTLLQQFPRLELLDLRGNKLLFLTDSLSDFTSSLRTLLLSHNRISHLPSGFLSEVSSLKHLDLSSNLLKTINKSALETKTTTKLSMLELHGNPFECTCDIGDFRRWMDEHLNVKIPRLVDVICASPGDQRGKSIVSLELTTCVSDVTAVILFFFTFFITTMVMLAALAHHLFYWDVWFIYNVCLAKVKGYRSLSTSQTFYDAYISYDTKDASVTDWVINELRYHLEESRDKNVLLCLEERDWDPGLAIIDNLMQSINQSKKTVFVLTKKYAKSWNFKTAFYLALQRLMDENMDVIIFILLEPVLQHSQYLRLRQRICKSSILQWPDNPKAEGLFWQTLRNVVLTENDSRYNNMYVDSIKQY

[2] = target: Mitogen-activated protein kinase 3 (Homo sapiens, UniProt P27361); test: Binding affinity to ERK1 (unknown origin) by surface plasmon resonance assay
[3] = Binding affinity to RasGAP (unknown origin) by surface plasmon resonance assay; design: species or system Homo sapiens
[4] = target: T2, Toll-like receptor 8 (Homo sapiens) (UniProt Q9NR97); test: as §1; conditions: filed as agonist
T2 sequence (whole entry): T1 sequence (Q9NR97 whole entry)

B16 = test: Antitumor activity against mouse B16 cells xenografted in mouse assessed as inhibition of tumor growth at 2 mg measured after 3 days; type: functional; design: scale not given: the % may be the effect or the level left; conditions: time 3 day
Mus musculus = test: Potency index ratio of imiquimod MED to test compound MED for induction of IFN in po dosed mouse assessed as minimum effective dose; type: functional
Hepatitis C virus = test: Antiviral activity against HCV infected in human Huh-7 cells assessed as reduction in HCV level at 1 to 10 uM measured after 24 h by real-time PCR method; design: scale not given: the % may be the effect or the level left; conditions: dose 1-10 µM
Toll-like receptor 8 [5] = target: T1, Toll-like receptor 8; test: Agonist activity at human TLR8 transfected in HEK-Blue hTLR8 cells; type: cell-based
Toll-like receptor 7 = target: T3, Toll-like receptor 7 (Homo sapiens, UniProt Q9NYK1); test: Agonist activity at human TLR7 transfected in HEK-Blue hTLR7 cells; type: cell-based
T3 sequence (Q9NYK1 whole entry): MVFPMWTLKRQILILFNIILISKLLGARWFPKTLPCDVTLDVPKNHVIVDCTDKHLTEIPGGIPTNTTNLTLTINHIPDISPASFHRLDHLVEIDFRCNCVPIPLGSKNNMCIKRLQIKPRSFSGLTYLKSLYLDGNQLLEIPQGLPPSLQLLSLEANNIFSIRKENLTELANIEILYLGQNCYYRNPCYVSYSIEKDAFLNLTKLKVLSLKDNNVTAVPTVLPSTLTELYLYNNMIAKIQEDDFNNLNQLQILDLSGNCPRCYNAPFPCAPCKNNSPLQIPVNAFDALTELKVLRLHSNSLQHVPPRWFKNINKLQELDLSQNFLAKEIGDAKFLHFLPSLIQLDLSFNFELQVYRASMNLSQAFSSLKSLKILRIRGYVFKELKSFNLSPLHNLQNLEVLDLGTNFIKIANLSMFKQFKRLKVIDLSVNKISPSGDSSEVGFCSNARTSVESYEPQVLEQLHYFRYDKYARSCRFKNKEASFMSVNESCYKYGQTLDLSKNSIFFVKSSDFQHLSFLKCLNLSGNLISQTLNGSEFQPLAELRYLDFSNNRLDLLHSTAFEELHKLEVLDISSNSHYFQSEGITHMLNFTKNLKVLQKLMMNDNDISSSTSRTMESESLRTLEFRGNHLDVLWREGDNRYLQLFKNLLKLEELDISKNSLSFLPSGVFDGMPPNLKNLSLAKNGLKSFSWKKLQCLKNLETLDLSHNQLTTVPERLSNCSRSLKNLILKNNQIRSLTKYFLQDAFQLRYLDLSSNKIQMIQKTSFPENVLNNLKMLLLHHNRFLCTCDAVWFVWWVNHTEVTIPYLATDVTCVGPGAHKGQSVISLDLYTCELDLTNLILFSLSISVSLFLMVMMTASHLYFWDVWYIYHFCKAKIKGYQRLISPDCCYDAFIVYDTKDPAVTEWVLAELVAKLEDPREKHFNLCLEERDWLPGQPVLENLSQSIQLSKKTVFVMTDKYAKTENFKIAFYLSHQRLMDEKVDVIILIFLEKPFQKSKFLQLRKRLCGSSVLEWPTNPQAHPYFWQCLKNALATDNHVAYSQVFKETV

Toll-like receptor 8 [6] = target: T1, Toll-like receptor 8; test: Agonist activity in TLR8 (unknown origin) expressed in HEK293 cells assessed as induction of NF-kappa activation; type: cell-based

Chain of Mitogen-activated protein kinase 3 (P27361 whole entry): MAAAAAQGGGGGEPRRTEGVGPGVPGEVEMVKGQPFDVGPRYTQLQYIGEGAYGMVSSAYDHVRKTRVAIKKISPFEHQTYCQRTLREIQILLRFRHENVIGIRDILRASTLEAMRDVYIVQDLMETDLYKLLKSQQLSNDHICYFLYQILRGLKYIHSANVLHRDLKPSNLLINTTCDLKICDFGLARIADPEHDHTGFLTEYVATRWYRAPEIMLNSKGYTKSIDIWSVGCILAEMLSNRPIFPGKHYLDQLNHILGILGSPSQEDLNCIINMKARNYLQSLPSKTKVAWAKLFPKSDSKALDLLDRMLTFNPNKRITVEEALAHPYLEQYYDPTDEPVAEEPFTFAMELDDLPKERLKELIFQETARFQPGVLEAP

EC50 (Toll-like receptor 8 [1]): 0.2 µM
SMILES: CCCCc1nc2c(N)nc3ccccc3c2s1

Kd [2]: 0.098 µM
Kd [3]: 0.212 µM
SMILES: Cc1cc(Nc2ncc3c(n2)N(C)C(=O)N(c2cc(NC(=O)c4cccc(C(F)(F)F)c4)ccc2C)C3)n(C)n1

EC50 [4]: 1.6 µM
SMILES: CCCCc1nc2c(N)nc3cc(C(=O)OC)ccc3c2n1CCCCCN

SMILES: C=CCn1c(=O)n([C@@H]2O[C@H](CO)[C@@H](O)[C@H]2O)c2nc(N)[nH]c(=O)c21 [LOXORIBINE]
Activity (B16): 96%

SMILES: COCCOc1nc(N)c2[nH]c(=O)n(Cc3ccccc3)c2n1
Ratio (Mus musculus): 100
Activity (Hepatitis C virus): 60%

EC50 (Toll-like receptor 8 [5]): 0.03 µM
EC50 (Toll-like receptor 7): 15 µM
EC50 (Toll-like receptor 8 [6]): 0.03 µM
SMILES: CCOC(=O)C1=Cc2ccc(-c3cccc(C#N)c3)cc2N=C(N)C1
